Measured values from patent publication US20150272944A1, “NOVEL TRIGLYCERIDE REDUCING AGENT” (KOWA COMPANY, LTD., priority 2005, published 2015).
Where two headings read alike, the source gives them in different places.

Columns and labels:
[1] = Plasma TG lowering effect in rats after 14 days repeated oral administration, blood taken after 22-hours fasting; format: in vivo, Wistar rat; conditions: single agent alone, rat, pitavastatin calcium 10 mg/kg, K-134 or cilostazol 100 mg/kg
Source text: To test effects of combination administration of the said agents, rats were used for the experiment. […] The vertical axis in FIG. 1 indicates concentration of plasma triglyceride (TG) (mg/dL). Administration groups: control; pitavastatin calcium (referred to as pitavastatin) alone; K-134 alone; cilostazol alone; combination of pitavastatin calcium (referred to as pitavastatin) and K-134; and combination of pitavastatin calcium (referred to as pitavastatin) and cilostazol, are listed from left to right.
Plasma TG lowering effect when pitavastatin calcium was administered in combination with K-134 or cilostazol was measured according to the following method 1-4.
A 7-week-old Wistar rat (CLEA Japan, Inc.) was housed in an animal room where light/dark cycle (light period with room lighting from 7.00 to 19.00), temperature of 23±3° C., and humidity of 55±15% were maintained through the experimental period, and solid feed (CLEA Japan, Inc.) and tap water were consumed freely.
Pitavastatin calcium, K-134 and cilostazol were each suspended in aqueous solution (1.0 mass %) of hydroxypropyl methyl cellulose (Shin-Etsu Chemical Co., Ltd.) and prepared in order that the administration dose was 1 mL/kg. The suspension was stored in a colored bottle and refrigerated at 4° C. Preparation was performed every seven days.
3. Test Method 36 rats were divided into 6 administration groups (each group consisted of 6 samples): (1) control; (2) pitavastatin calcium (10 mg/kg) alone; (3) K-134 (100 mg/kg) alone; (4) cilostazol (100 mg/kg) alone; (5) combination of pitavastatin calcium (10 mg/kg) and K-134 (100 mg/kg); and (6) combination of pitavastatin calcium (10 mg/kg) and cilostazol(100 mg/kg).
Pitavastatin was orally administered once daily at 4.00 pm for 14 days repeatedly, and K-134 or cilostazol was orally administered twice daily at 9.00 am and 4.00 pm for 14 days repeatedly. […] Blood sample was taken from each group after 22-hours fasting following the final administration in the afternoon, and plasma TG was measured. […]

[2] = diabetic rat; cited from earlier work
[3] = normal rat; cited from earlier work
[4] = clinical report, cited from earlier work

Row | Structure (SMILES) | hypotriglyceridemic effect in vivo [1] | hypotriglyceridemic effect [2] | hypotriglyceridemic effect [3] | TG level ([4]; 4-week administration in a subject) | TG level ([4]; 24-week administration)
1 | O=C(NCCCOc1ccc2[nH]c(=O)ccc2c1)N(C1CC1)[C@@H]1CCCC[C@H]1O [K-134, (−)-6-[3[3-cyclopropyl-3-[(1R, 2R)-2-hydroxycyclohexyl]ureido]-propoxy]-2-(1H)-quinolinone] | little hypotriglyceridemic effect |  |  |  | 
2 | O=C1CCc2cc(OCCCCc3nnnn3C3CCCCC3)ccc2N1 [cilostazol] | little hypotriglyceridemic effect | hypotriglyceridemic effect is reported | unstable | lowered | return to former value after transient elevation
3 | O=C(O)C[C@H](O)C[C@H](O)/C=C/c1c(C2CC2)nc2ccccc2c1-c1ccc(F)cc1 [pitavastatin, (3R, 5S, 6E)-7-[2-cycloropyl-4-(4-fluorophenyl)-3-quinolyl]-3,5-dihydroxy-6-heptenoic acid] | extremely weak |  |  |  | 
